Row | SMILES | melting point [°C]
1 | CC(C)(C)NC(=O)OC1OCN(c2cccc(C(F)(F)F)c2)C1=O (configuration not stated) | 125 to 126
2 | CCCCCCCCCCCCCCCCSCC(CNS(=O)(=O)CCCI)n1nnc(C)n1 (configuration not stated) | 50 to 51
3 | CCOC(=O)c1cn(C2CC2)c2cc(Br)c(F)cc2c1=O | 251 to 253
4 | O=C1CCc2ncc3cc(F)ccc3c2N1 | 266 to 267
5 | CSc1c(C)[nH]c2c(C)cccc12 | 32 to 33
6 | CCCCCCCCCC(=O)Cc1ccc(OCc2ccccc2)c(OCc2ccccc2)c1 | 68
7 | CCN1CCc2ccc(C(=O)CCC(=O)N3CCC(c4ccc(Cl)cc4)CC3)cc2C1 | 115 to 116
8 | Cc1c(F)c(F)cc2c1c(=O)c(C(=O)O)cn2-c1cc(N)c(F)cc1F | > 270
9 | CC(C)[C@@H](NS(=O)(=O)c1ccc(-c2ccsc2)cc1)C(=O)O | 169
10 | CCC12CCCN3CCC4(C(=C(C(=O)OC)C1)Nc1ccccc14)C32 (configuration not stated) | 124 to 125
11 | O=C(/C=C/c1ccc(F)cc1)N1CCN2C(=O)OC(c3ccccc3)(c3ccccc3)C2C1 (configuration not stated) | 250 to 251
12 | CCOC(N)=C(C#N)C#N | 233
13 | CN(C)S(=O)(=O)n1cc(S(=O)(=O)N2CCc3ccccc3C2)nc1C#N | 143 to 144
14 | CC(=S)NC[C@H]1CN(c2ccc(N3CCN(C)C3=O)c(F)c2)C(=O)O1 | 168
15 | CCCC1CCC(c2cc3c4c(c(F)c(F)c3o2)OCCC4)CC1 (configuration not stated) | 89
16 | CC(NC(=O)C(CS)C(C)c1ccc(F)c(F)c1)C(=O)O (configuration not stated) | 61
17 | CCCC1CCC=CCCCC(=O)OCCN1C(=O)OCC1c2ccccc2-c2ccccc21 (configuration not stated) | 148 to 150
18 | CCOC(=O)c1[nH]c(CC)nc1C(C)C | 177 to 178
19 | COc1ccc([N+](=O)[O-])cc1N1CCNCC1 | 84 to 87
20 | O=C(CCl)Cc1nc2ccccc2c(=O)n1-c1ccc(Cl)cc1 | > 275
21 | O=C(Nc1cccc2ccccc12)N1C(=O)C2(CCCCC2)NC12CCCCC2 | 157 to 160
22 | Cc1cc(C)cc(-c2cn(C(C)C)c3ccccc23)c1 | 60 to 62
23 | N#CC[C@@H]1CC[C@@H]2CN(c3noc4ccccc34)CCN2C1 (relative stereo) | 184 to 186
24 | COc1cc(OC)c(NC(=O)CBr)c(OC)c1 | 160 to 161

Row | SMILES | melting point [°C]
25 | Cc1cc2c(c(C)c1NC(=O)NC(C)(C)C)C(c1ccc(C(C)C)cc1)CO2 (single isomer, unassigned; (+)) | 205 to 206
26 | CCCN1CC(O)c2cc(OC)c(OC)c3c2C1Cc1cc(OC)c(OC)cc1-3 (configuration not stated) | 153 to 154
27 | CCC[C@H]1CC[C@H](C(=O)O)CC1 | 97 to 98
28 | CN1CCc2cc3ccccc3n2CC1 | 59 to 60
29 | Cc1cc(NC(=O)N(CC(C)C)CC(C)C)cc(C)c1S(=O)(=O)C[N+](=O)[O-] | 153 to 155
30 | CCOC(=O)CSCc1cc(-c2nn(C)c(C(F)(F)F)c2Cl)c(F)cc1Cl | 63
31 | C=CCNc1nc(NCC=C)c2scc(CC)c2n1 | 55
32 | CC(C)(C)c1ccc2c(c1)C=C(C(=O)O)C(C(F)(F)F)S2 (configuration not stated) | 184 to 185
33 | CCCC1c2c(ccc(C(C)=O)c2O)OC1CSc1ccc(C(=O)CCC(=O)O)cc1 (configuration not stated) | 110 to 112
34 | Cc1cc2c(c(C)c1NC(=O)CC(C)(C)C)C(c1ccccc1)CO2 (configuration not stated) | 158 to 159
35 | C[C@H]1[C@@H](C(C)(C)O)CCN1c1ccc(C#N)cc1C(F)(F)F | 98 to 100
36 | Cc1cc(C(=O)N2Cc3cccn3Cc3ccccc32)ccc1C1=CCCc2ccccc21 | 108
37 | CC(Cl)c1ccc(-c2ccc(Cl)cc2)cc1 (configuration not stated) | 100 to 102
38 | C[Si]1(C)CCCCCCCCCCCCCC[Si](C)(C)O[Si](C)(C)CCCCCCCCCCCCCC[Si](C)(C)O1 | 97
39 | O=C(O)c1ccc2c(c1)C(=O)N(c1ccc(C3(c4ccc(N5C(=O)c6ccc(C(=O)O)cc6C5=O)cc4)c4ccccc4-c4ccccc43)cc1)C2=O | 328 to 331
40 | COC(=O)NNc1cc(C)c(Cl)c2c1OC(C)C2 (configuration not stated) | 157 to 160
41 | Cc1ncc2c(n1)N(CC(O)CO)C(=O)CO2 (configuration not stated) | 70 to 72
42 | CSC1=NC(=O)C(=Cc2nc(C(C)(C)C)c(O)c(C(C)(C)C)n2)S1 | 205 to 208
43 | CN(C(C)(C)CC(=O)Oc1ccccc1C(C)(C)C)S(=O)(=O)C(F)(F)F | 42 to 44
44 | CC[C@]1(C(=O)NCC=Cc2ccccc2F)[C@H](C)C1(Cl)Cl (relative stereo) | 103 to 105
45 | O=S(=O)(NCCN1CCOCC1)C(F)(F)F | 106 to 108
46 | CCCCCc1c(C(C)C)nc(C(C)C)c(CO)c1-c1ccc(F)c(F)c1 | 106 to 107
47 | COc1cc2c3c(n(C)c(=O)c2cc1OC)-c1cc2c(cc1C3=CCCCCl)OCO2 | 196 to 201
48 | CC(C)(CO)NS(=O)(=O)c1cc(NC(=O)c2cnn3c(C(F)(F)F)cc(-c4ccc(C(F)(F)F)c(OCC(F)(F)F)c4)nc23)c(Cl)s1 | 264

Other lines, results leading:

Row | melting point [°C] | SMILES
49 | 171 to 173 | N#Cc1ccccc1-c1cccc(Cc2ccc(OCc3ccccc3)cc2)c1Nn1cnnc1
50 | 74 to 80 | O=C(O)CCCc1cc2cc(Cl)ccc2n1S(=O)(=O)c1ccc2ncsc2c1
51 | 84 to 85 | COc1ccc(CCOCCCCCCNCC(O)c2ccc(O)c(CCO)c2)cc1 (configuration not stated)
52 | 234 to 235 | COc1ccc2c(c1)cc(-c1cc3cccnc3[nH]1)n2C
53 | 214 to 216 | O=C(O)c1cn(C2CC2)c2cc(F)c(F)c(NCc3ccccc3)c2c1=O
54 | 159 to 162 | CN(Cc1cc2c(=O)c(C(=O)NCc3ccc(Cl)cc3)cn(C)c2s1)C[C@@H](O)c1ccco1
55 | 134 to 135 | Cc1oc(-c2ccccc2)nc1CCOc1ccc(COc2ncccc2CC(=O)O)cc1
56 | > 260 | O=C1c2ccccc2C(=O)c2sc(-c3ccccc3F)nc21
57 | 180 to 181 | CCCCc1nc(Cl)c(CO)n1Cc1ccc(-c2cccc(C(=O)O)c2)cc1
58 | 221 to 223 | CCOC(=O)c1cnc2cc([N+](=O)[O-])ccc2n1
59 | 144 to 147 | COc1ccc(N2CCN(C3CCN(Cc4ccccc4)CC3)C2=O)cc1
60 | 174 to 175 | CC(=NOCC(=O)O)c1ccc(NS(C)(=O)=O)c(Oc2ccc(F)cc2F)c1
61 | 109 to 111 | O=CN1CCC(c2nn(-c3ccc(C(F)(F)F)cc3)c3ccccc23)CC1
62 | 207 to 209 | CNS(=O)(=O)c1ccc(C)c(CCCOCCn2cnc3c(N)nc4ccccc4c32)c1
63 | 220 to 222 | COc1ccc(CCNc2nc3nc(-c4ccco4)nc-3c(N)[nH]2)cc1
64 | 153 to 154 | CCc1ccc(OC(C)=O)c(C2(OC(C)=O)C(=O)c3ccccc3C2=O)c1
65 | > 250 | NC(=O)c1nc(-c2ccccc2)c(-c2ccc(=O)[nH]n2)s1
66 | 270 | NC(=O)c1cc([N+](=O)[O-])ccc1C=Cc1ccccc1
67 | 57 to 59 | CC(Oc1ccc(-c2cc(C(F)(F)F)cc(S(N)(=O)=O)c2)cc1)C(O)CCc1cccnc1 (configuration not stated)
68 | 224 to 225 | COc1ccc2c(c1)C(CC(=O)O)=C(C)C2=Cc1ccc(S(N)(=O)=O)cc1
69 | 126 to 128 | CN1CC(C(=O)N(C)Cc2ccc(C(F)(F)F)cc2)=C(O)C1=O
70 | 154 to 158 | Cc1ccc(CN(c2ccccc2CC(=O)O)c2c(Cl)cccc2Cl)cc1
71 | 135 to 137 | c1ccc(-c2ccc(-c3nc4n(n3)CCCc3ccccc3-4)cc2)cc1
72 | 152 to 154 | O=C(O)C(=O)c1ccc(OCCOc2ccc3ccccc3c2)s1
73 | 249 to 250 | CC(=O)Nc1cccc(CNC(=O)c2[nH]c3ccc(Cl)cc3c2S(=O)(=O)c2ccccc2)c1

Row | melting point [°C] | SMILES
74 | 215 to 218 | COC(=O)c1c(N)c2c(c(N)c1C#N)C(=O)c1ccccc1C2=O
75 | 104 to 106 | CCOC(=O)c1sc(I)nc1-c1ccccc1
76 | 132 to 137 | COC(=O)CCCc1cc2cc(Cl)ccc2n1S(=O)(=O)c1ccc2c(c1)CCO2
77 | 176 | COC1(c2nc3c(F)cccc3s2)C=CC(=NS(=O)(=O)c2ccc(C)cc2)C=C1 (configuration not stated)
78 | 76 to 78 | CCCc1c(OCCCCC(=O)NCCCCc2cccnc2)ccc(C(C)=O)c1O
79 | 86 to 96 | Cc1noc(NS(=O)(=O)c2ccccc2-c2ccc(-c3ncoc3C)cc2)c1C
80 | 103 to 105 | COC(=O)c1ccc2ccc(C(C)=O)cc2c1
81 | 33 | CC(C)(C)[Si](C)(C)Oc1ccc(-c2ccc(C3CCC(c4c(F)cccc4F)=N3)cc2)cc1 (configuration not stated)
82 | 153 to 155 | COc1cc2c(cc1N1CCNCC1)N(C(=O)c1ccc(-c3ccc(-c4noc(C)n4)cc3C)cc1)CC2
83 | 167 to 168 | Cc1nc2c3c(c(C(=O)NCCO)cc2n1C)CCC1(Cc2ccccc2C1)N3
84 | 123 to 124 | CCOC(=O)C(Oc1nc(OC)cc(OC)n1)C(C)(C)c1ccccc1 (configuration not stated)
85 | > 250 | COc1ccc(C(=O)Nc2c(Cl)cncc2Cl)c2c1[nH]c1ccccc12
86 | 262 to 264 | CCc1cc(C=Cc2nc3ccccc3o2)c(=O)[nH]c1C
87 | 115 to 118 | COc1ccc2cnoc2c1Cl
88 | 202 to 205 | CCOCc1nc2c(N)nc3cc(OCc4ccccc4)ccc3c2n1CC(C)(C)NC(C)=O
89 | 230 | CCCC1=C(C#N)C(c2cccc3c2OCCC3)c2c[nH]nc2N1 (configuration not stated)
90 | 156 | Cn1cc(-c2ccccc2)c(=O)c(-c2cc(Cl)ccc2Cl)c1
91 | 265 to 266 | Oc1cccc(Nc2n[nH]c3ncnc(Nc4cccc(Cl)c4)c23)c1
92 | 208 to 209 | COc1ccc(C=CC(=O)Nc2cnc3ccc(Cl)cc3c2-c2ccccc2Cl)cc1OC
93 | 191 to 193 | CCCCCCc1nc2ccccc2n1Cc1ccc(C(=O)O)cc1
94 | 170 to 171 | CCOCC1(C)CCCOc2cc(C#Cc3ccc(C(=O)O)cc3)ccc21 (configuration not stated)
95 | 234 to 240 | Nc1ccc(Oc2c(N3CCCC3)cc(C(=O)O)cc2S(N)(=O)=O)cc1
96 | 127 to 129 | CCCN(CCC)C(=O)Cn1c(-c2ccc(OC)cc2)nc2cccnc21
97 | 193 to 198 | COc1ccc(C=CC(=O)c2ccc(O)cc2)cc1OC
